Data on 30 compounds can be found in patent US10189854B2, “Substituted pyrimidine compounds” (Grünenthal GmbH, priority 2014, dated 2019).

Sequence of human PDE4B1 (Q07343 whole entry): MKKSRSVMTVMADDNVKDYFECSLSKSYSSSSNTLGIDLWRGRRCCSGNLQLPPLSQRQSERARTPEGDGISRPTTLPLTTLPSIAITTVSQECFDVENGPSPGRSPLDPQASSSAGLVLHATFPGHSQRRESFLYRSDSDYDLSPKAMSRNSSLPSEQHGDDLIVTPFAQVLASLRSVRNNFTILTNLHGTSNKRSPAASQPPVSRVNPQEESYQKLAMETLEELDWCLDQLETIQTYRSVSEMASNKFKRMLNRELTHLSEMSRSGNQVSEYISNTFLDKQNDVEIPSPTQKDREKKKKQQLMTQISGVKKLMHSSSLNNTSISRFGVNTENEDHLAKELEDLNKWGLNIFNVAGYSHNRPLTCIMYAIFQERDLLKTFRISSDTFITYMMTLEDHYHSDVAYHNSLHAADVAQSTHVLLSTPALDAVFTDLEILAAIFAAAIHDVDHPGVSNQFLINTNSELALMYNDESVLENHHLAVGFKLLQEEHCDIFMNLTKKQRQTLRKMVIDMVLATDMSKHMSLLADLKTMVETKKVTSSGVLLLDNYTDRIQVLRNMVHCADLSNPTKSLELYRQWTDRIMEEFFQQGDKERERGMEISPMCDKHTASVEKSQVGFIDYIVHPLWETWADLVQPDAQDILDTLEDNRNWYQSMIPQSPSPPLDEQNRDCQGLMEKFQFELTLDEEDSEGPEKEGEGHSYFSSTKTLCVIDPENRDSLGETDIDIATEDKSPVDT

In the assay the target is human PDE4B1 (Homo sapiens (Human), UniProt Q07343). Nature of the assay: cAMP HTRF assay to determine the activity of hPDE4B1. Type of assay: biochemical. Conditions: IC50 inhibition of PDE4B; human recombinant PDE4B1, cAMP HTRF assay. The procedure, abridged:
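Recombinant human PDE4B1 expressed in Sf9 cells (4.8 U) was incubated with 40 nM cAMP for 30 min at room temperature in Tris buffer, pH 7.8, with MgCl2, DTT and Tween 20. HTRF detection of remaining cAMP followed, with 1 mM IBMX stop, read 60 min later as the 665/620 nm ratio. Results are % inhibition versus control.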
A general note: TR-FRET usually uses a lanthanide donor and a delayed reading to cut background.
Broadly, the IC50 is the concentration that inhibits the measured activity by half. `O=C(c1ccc2c(c1)N(c1ncc(-c3c(F)cccc3F)cn1)CC21CC1)N1CCOCC1` [Compound 27, [1-[5-(2,6-Difluoro-phenyl)-pyrimidin-2-yl]-spiro[1,2-dihydro-indole-3,1′-cyclopropane]-6-yl]-morpholin-4-yl-methanone]: the IC50 was under 0.1 µM. `O=C(c1ccc2c(c1)N(c1ncc(-c3ccnc(F)c3)cn1)CC21CC1)N1CCOCC1` [Compound 160, [1-[5-(2-Fluoro-pyridin-4-yl)-pyrimidin-2-yl]-spiro[1,2-dihydro-indole-3,1′-cyclopropane]-6-yl]-morpholin-4-yl-methanone]: the IC50 is under 0.1 µM. With `O=C1CN(C(=O)c2ccc3c(c2)N(c2ncc(-c4ccccc4F)cn2)CC32CC2)CCN1` [Compound 4, 4-[1-[5-(2-Fluorophenyl)-pyrimidin-2-yl]-spiro[1,2-dihydro-indole-3,1′-cyclopropane]-6-carbonyl]-piperazin-2-one] the figure was under 0.1 µM; with `CC(=O)N1CCNC(C(=O)c2ccc3c(c2)N(c2ncc(-c4ccccc4F)cn2)CC32CC2)C1` (stereo not drawn) [Compound 85, 1-[5-[1-[5-(2-Fluorophenyl)-pyrimidin-2-yl]-spiro[1,2-dihydro-indole-3,1′-cyclopropane]-6-carbonyl]-piperazin-1-yl]-ethanone], under 0.1 µM. In the case of “4-[1-[5-(3-Methoxyphenyl)-pyrimidin-2-yl]-spiro[1,2-dihydro-indole-3,1′-cyclopropane]-6-carbonyl]-piperazin-2-one [Compound 189]” it was under 0.1 µM; in that of `COc1cccc(-c2cnc(N3CC4(CC4)c4ccc(C(=O)N5CC6CC5CN6)cc43)nc2)c1` (stereo not drawn) [Compound 212, (2,5-Diazabicyclo[2.2.1]heptan-2-yl)-[1-[5-(3-methoxyphenyl)-pyrimidin-2-yl]-spiro[1,2-dihydro-indole-3,1′-cyclopropane]-6-yl]-methanone; 2,2,2-trifluoro-acetic acid], under 0.1 µM. Consider `O=C(c1ccc2c(c1)N(c1ncc(Cc3ccccc3F)cn1)CC21CC1)N1CCOCC1` [Compound 178, [1-[5-[(2-Fluorophenyl)-methyl]-pyrimidin-2-yl]-spiro[1,2-dihydro-indole-3,1′-cyclopropane]-6-yl]-morpholin-4-yl-methanone], for which the IC50 fell in the range of 0.1 to 1 µM. In the case of `O=C(c1ccc2c(c1)N(c1ncc(-c3ccccc3F)cn1)CC21CC1)N1CCSCC1` [Compound 93, [1-[5-(2-Fluorophenyl)-pyrimidin-2-yl]-spiro[1,2-dihydro-indole-3,1′-cyclopropane]-6-yl]thiomorpholin-4-yl-methanone], the IC50 was under 0.1 µM. On to `O=C(c1ccc2c(c1)N(c1ncc(-c3cc(OC(F)(F)F)ccc3F)cn1)CC21CC1)N1CCNCC1` [Compound 72, [1-[5-[2-Fluoro-5-(trifluoromethyloxy)-phenyl]-pyrimidin-2-yl]-spiro[1,2-dihydro-indole-3,1′-cyclopropane]-6-yl]-piperazin-1-yl-methanone], for which the IC50 is under 0.1 µM. Consider `O=C(c1ccc2c(c1)N(c1ncc(Oc3ccccc3F)cn1)CC21CC1)N1CCOCC1` [Compound 179, [1-[5-(2-Fluoro-phenoxy)-pyrimidin-2-yl]-spiro[1,2-dihydro-indole-3,1′-cyclopropane]-6-yl]-morpholin-4-yl-methanone], for which the IC50 lay within 0.1 to 1 µM. For `N#Cc1ccc(F)c(-c2cnc(N3CC4(CC4)c4ccc(C(=O)N5CCNCC5)cc43)nc2)c1` [Compound 109, 4-Fluoro-3-[2-[6-(piperazine-1-carbonyl)-spiro[1,2-dihydro-indole-3,1′-cyclopropane]-1-yl]-pyrimidin-5-yl]-benzonitrile], the IC50 is under 0.1 µM. In the case of `O=C(c1cc2c(cn1)C1(CC1)CN2c1ncc(-c2ccccc2F)cn1)N1CCOCC1` [Compound 168, [1-[5-(2-Fluorophenyl)-pyrimidin-2-yl]-spiro[1,2-dihydro-pyrrolo[3,2-c]pyridine-3,1′-cyclopropane]-6-yl]-morpholin-4-yl-methanone] it was 0.1 to 1 µM. In the case of `COCCCNC(=O)c1ccc2c(c1)N(c1ncc(-c3ccccc3F)cn1)CC21CC1` [Compound 75, 1-[5-(2-Fluorophenyl)-pyrimidin-2-yl]-N-(3-methoxy-propyl)-spiro[1,2-dihydro-indole-3,1′-cyclopropane]-6-carboxylic acid amide] it was 0.1 to 1 µM; in that of `O=C1CN(C(=O)c2ccc3c(c2)N(c2ncc(-c4cc(F)cc(F)c4)cn2)CC32CC2)CCN1` [Compound 128, 4-[1-[5-(3,5-Difluoro-phenyl)-pyrimidin-2-yl]-spiro[1,2-dihydro-indole-3,1′-cyclopropane]-6-carbonyl]-piperazin-2-one], under 0.1 µM. Consider `O=C(c1ccc2c(c1)N(c1ncc(-c3ccccc3F)cn1)CC21CC1)N1CC2(COC2)C1` [Compound 64, [1-[5-(2-Fluorophenyl)-pyrimidin-2-yl]-spiro[1,2-dihydro-indole-3,1′-cyclopropane]-6-yl]-(2-oxa-6-azaspiro[3.3]heptan-6-yl)-methanone], for which the IC50 was in the range of 1 to 10 µM. With `O=C(c1ccc2c(c1)N(c1ncc(-c3cncnc3)cn1)CC21CC1)N1CCOCC1` [Compound 162, Morpholin-4-yl-[1-(5-pyrimidin-5-yl-pyrimidin-2-yl)-spiro[1,2-dihydro-indole-3,1′-cyclopropane]-6-yl]-methanone] the figure was under 0.1 µM; with `CN(C(=O)c1ccc2c(c1)N(c1ncc(-c3ccccc3F)cn1)CC21CC1)C1CCOCC1` [Compound 102, 1-[5-(2-Fluorophenyl)-pyrimidin-2-yl]-N-methyl-N-tetrahydro-pyran-4-yl-spiro[1,2-dihydro-indole-3,1′-cyclopropane]-6-carboxylic acid amide], 0.1 to 1 µM. Regarding `O=C(c1ccc2c(c1)N(c1ncc(-c3cc(Cl)ccc3F)cn1)CC21CC1)N1CCOCC1` [Compound 58, [1-[5-(5-Chloro-2-fluoro-phenyl)-pyrimidin-2-yl]-spiro[1,2-dihydro-indole-3,1′-cyclopropane]-6-yl]-morpholin-4-yl-methanone], the IC50 is under 0.1 µM. With `O=C(c1ccc2c(c1)N(c1ncc(-c3cccc(F)n3)cn1)CC21CC1)N1CCOCC1` [Compound 151, [1-[5-(6-Fluoro-pyridin-2-yl)-pyrimidin-2-yl]-spiro[1,2-dihydro-indole-3,1′-cyclopropane]-6-yl]-morpholin-4-yl-methanone] the figure was under 0.1 µM; with `CC(=O)Nc1ccc(-c2cnc(N3CC4(CC4)c4ccc(C(=O)N5CCOCC5)cc43)nc2)s1` [Compound 158, N-[5-[2-[6-(Morpholine-4-carbonyl)-spiro[1,2-dihydro-indole-3,1′-cyclopropane]-1-yl]-pyrimidin-5-yl]-thiophen-2-yl]-acetamide], under 0.1 µM. As to “4-[1-[5-(3-Fluorophenyl)-pyrimidin-2-yl]-spiro[1,2-dihydro-indole-3,1′-cyclopropane]-6-carbonyl]-piperazin-2-one [Compound 188]”, the IC50 is under 0.1 µM. For the compound `O=C(c1ccc2c(c1)N(c1ncc(-c3ccc(F)cc3F)cn1)CC21CC1)N1CCOCC1` [Compound 8, [1-[5-(2,4-Difluoro-phenyl)-pyrimidin-2-yl]-spiro[1,2-dihydro-indole-3,1′-cyclopropane]-6-yl]-morpholin-4-yl-methanone], the half-maximal inhibitory concentration (IC50) was under 0.1 µM. Turning to `Cc1cc(-c2cnc(N3CC4(CC4)c4ccc(C(=O)N5CCOCC5)cc43)nc2)sn1` [Compound 155, [1-[5-(3-Methyl-isothiazol-5-yl)-pyrimidin-2-yl]-spiro[1,2-dihydro-indole-3,1′-cyclopropane]-6-yl]-morpholin-4-yl-methanone], the half-maximal inhibitory concentration (IC50) is under 0.1 µM. With `O=C(NCCN1CCCC1=O)c1ccc2c(c1)N(c1ncc(-c3ccccc3F)cn1)CC21CC1` [Compound 78, 1-[5-(2-Fluorophenyl)-pyrimidin-2-yl]-N-[2-(2-oxo-pyrrolidin-1-yl)-ethyl]-spiro[1,2-dihydro-indole-3,1′-cyclopropane]-6-carboxylic acid amide] the figure was 0.1 to 1 µM; with `CN1CCN(C(=O)c2ccc3c(c2)N(c2ncc(-c4ccccc4F)cn2)CC32CC2)CC1=O` [Compound 38, 4-[1-[5-(2-Fluorophenyl)-pyrimidin-2-yl]spiro[1,2-dihydro-indole-3,1′-cyclopropane]-6-carbonyl]-1-methyl-piperazin-2-one], under 0.1 µM. With `COCC1CCN(C(=O)c2ccc3c(c2)N(c2ncc(-c4ccccc4F)cn2)CC32CC2)CC1` [Compound 217, [1-[5-(2-Fluorophenyl)-pyrimidin-2-yl]-spiro[1,2-dihydro-indole-3,1′-cyclopropane]-6-yl]-[4-(methoxymethyl)-piperidin-1-yl]-methanone] the figure was 1 to 10 µM; with `NC(=O)c1ccc(F)c(-c2cnc(N3CC4(CC4)c4ccc(C(=O)N5CCOCC5)cc43)nc2)c1` [Compound 35, 4-Fluoro-3-[2-[6-(morpholine-4-carbonyl)-spiro[1,2-dihydro-indole-3,1′-cyclopropane]-1-yl]-pyrimidni-5-yl]-benzamide], under 0.1 µM; with `NC(=O)c1ccnc(-c2cnc(N3CC4(CC4)c4ccc(C(=O)N5CCOCC5)cc43)nc2)c1` [Compound 164, 2-[2-[6-(Morpholine-4-carbonyl)-spiro[1,2-dihydro-indole-3,1′-cyclopropane]-1-yl]-pyrimidin-5-yl]-pyridine-4-carboxylic acid amide], under 0.1 µM. In the case of `O=C(c1ccc2c(c1)N(c1ncc(-c3ccccc3F)cn1)CC21CC1)N1CCC1` [Compound 89, (Azetidin-1-yl)-[1-[5-(2-fluorophenyl)-pyrimidin-2-yl]-spiro[1,2-dihydro-indole-3,1′-cyclopropane]-6-yl]-methanone], the IC50 fell in the range of 0.1 to 1 µM.

For the compound `O=C(c1ccc2c(c1)N(c1ncc(-c3ccccc3F)cn1)CC21CC1)N1CC[C@@H](O)C1` [Compound 44, [1-[5-(2-Fluorophenyl)-pyrimidin-2-yl]-spiro[1,2-dihydro-indole-3,1′-cyclopropane]-6-yl]-[(3R)-3-hydroxy-pyrrolidin-1-yl]-methanone], the IC50 was under 0.1 µM.
